Experimental data taken from the supplement of paper PMC10307832.

Assays:
Experiment in all cases: relative viability (nuclei count vs DMSO), 5 days (fraction); higher = more cells survive
H3255 = system: H3255
In short: (§1)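 Medians of duplicate plates are given as relative viability. That measure is the nuclei count in treated wells divided by the count in vehicle wells. Counts were taken on 4× images of lung cancer cell lines in 1536-well plates, 5 days after pin-tool dosing the day after seeding with one drug alone or a fixed anchor-drug dose plus five library-drug doses (not always all listed) in √10 steps.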

NCI-H1993 = system: NCI-H1993
In short: as §1

NCI-H1975 = system: NCI-H1975
In short: as §1

LU99A = system: LU99A
In short: as §1

NCI-H647 = system: NCI-H647
In short: as §1

NCI-H838 = system: NCI-H838
In short: as §1

LC-2-ad = system: LC-2-ad
In short: as §1

HCC-366 = system: HCC-366
In short: as §1

NCI-H1944 = system: NCI-H1944
In short: as §1

HCC-15 = system: HCC-15
In short: as §1

PC-3 [JPC-3] = system: PC-3 [JPC-3]
In short: as §1

HARA = system: HARA
In short: as §1

NCI-H2228 = system: NCI-H2228
In short: as §1

NCI-H661 = system: NCI-H661
In short: as §1

NCI-H1666 = system: NCI-H1666
In short: as §1

CAL-12T = system: CAL-12T
In short: as §1

NCI-H520 = system: NCI-H520
In short: as §1

NCI-H1734 = system: NCI-H1734
In short: as §1

SK-LU-1 = system: SK-LU-1
In short: as §1

COR-L 105 = system: COR-L 105
In short: as §1

NCI-H3122 = system: NCI-H3122
In short: as §1

PC-14 = system: PC-14
In short: as §1

O=C(O)CCCCC(CCSCc1ccccc1)SCc1ccccc1 (centres undefined) [CPI-613] + C[C@@H](Oc1cc(-c2cnn(C3CCNCC3)c2)cnc1N)c1c(Cl)ccc(F)c1Cl [Crizotinib] (partner 1 µM) was tested, and the relative viability (H3255; first compound 5 µM) was 0.773, the relative viability (H3255; first compound 15.81 µM) was 0.894 and the relative viability (H3255; first compound 50 µM) was 0.914. For the same compound, the relative viability (H3255; first compound 158.11 µM) was 0.831, the relative viability (H3255; first compound 500 µM) was 0.742 and the relative viability (NCI-H1993; first compound 5 µM) was 0.862. It also gave a relative viability (NCI-H1993; first compound 15.81 µM) of 0.852, a relative viability (NCI-H1993; first compound 50 µM) of 1.01 and a relative viability (NCI-H1993; first compound 158.11 µM) of 0.639. It also gave a relative viability (NCI-H1993; first compound 500 µM) of 0.438, a relative viability (NCI-H1975; first compound 5 µM) of 0.931 and a relative viability (NCI-H1975; first compound 15.81 µM) of 0.982. For the same compound, the relative viability (NCI-H1975; first compound 50 µM) was 0.945, the relative viability (NCI-H1975; first compound 158.11 µM) was 0.499 and the relative viability (NCI-H1975; first compound 500 µM) was 0.0749. For the same compound, the relative viability (LU99A; first compound 5 µM) was 0.618, the relative viability (LU99A; first compound 15.81 µM) was 0.546 and the relative viability (LU99A; first compound 50 µM) was 0.589. For the same compound, the relative viability (LU99A; first compound 158.11 µM) was 0.168, the relative viability (LU99A; first compound 500 µM) was 0.0638 and the relative viability (NCI-H647; first compound 5 µM) was 0.853. The relative viability (NCI-H647; first compound 15.81 µM) was 1.01, the relative viability (NCI-H647; first compound 50 µM) was 0.769 and the relative viability (NCI-H647; first compound 158.11 µM) was 0.0681. For the same compound, the relative viability (NCI-H647; first compound 500 µM) was 0.0175, the relative viability (NCI-H838; first compound 5 µM) was 0.882 and the relative viability (NCI-H838; first compound 15.81 µM) was 0.833. It also gave a relative viability (NCI-H838; first compound 50 µM) of 0.803, a relative viability (NCI-H838; first compound 158.11 µM) of 0.598 and a relative viability (NCI-H838; first compound 500 µM) of 0.0806. For the same compound, the relative viability (LC-2-ad; first compound 5 µM) was 0.444, the relative viability (LC-2-ad; first compound 15.81 µM) was 0.432 and the relative viability (LC-2-ad; first compound 50 µM) was 0.417. For the same compound, the relative viability (LC-2-ad; first compound 158.11 µM) was 0.529, the relative viability (LC-2-ad; first compound 500 µM) was 0.51 and the relative viability (HCC-366; first compound 5 µM) was 0.533. For the same compound, the relative viability (HCC-366; first compound 15.81 µM) was 0.483, the relative viability (HCC-366; first compound 50 µM) was 0.381 and the relative viability (HCC-366; first compound 158.11 µM) was 0.331. The relative viability (HCC-366; first compound 500 µM) was 0.0154, the relative viability (NCI-H1944; first compound 5 µM) was 1.22 and the relative viability (NCI-H1944; first compound 15.81 µM) was 1.02. The relative viability (NCI-H1944; first compound 50 µM) was 1.07, the relative viability (NCI-H1944; first compound 158.11 µM) was 1.06 and the relative viability (NCI-H1944; first compound 500 µM) was 0.891. The relative viability (HCC-15; first compound 5 µM) was 0.772, the relative viability (HCC-15; first compound 15.81 µM) was 0.746 and the relative viability (HCC-15; first compound 50 µM) was 0.776. For the same compound, the relative viability (HCC-15; first compound 158.11 µM) was 0.367, the relative viability (HCC-15; first compound 500 µM) was 0.326 and the relative viability (PC-3 [JPC-3]; first compound 5 µM) was 0.977. For the same compound, the relative viability (PC-3 [JPC-3]; first compound 15.81 µM) was 0.89, the relative viability (PC-3 [JPC-3]; first compound 50 µM) was 0.889 and the relative viability (PC-3 [JPC-3]; first compound 158.11 µM) was 0.648. The relative viability (PC-3 [JPC-3]; first compound 500 µM) was 0.324, the relative viability (HARA; first compound 5 µM) was 1.04 and the relative viability (HARA; first compound 15.81 µM) was 1.09. The relative viability (HARA; first compound 50 µM) was 1.02, the relative viability (HARA; first compound 158.11 µM) was 0.397 and the relative viability (HARA; first compound 500 µM) was 0.247. It also gave a relative viability (NCI-H2228; first compound 5 µM) of 0.513, a relative viability (NCI-H2228; first compound 15.81 µM) of 0.481 and a relative viability (NCI-H2228; first compound 50 µM) of 0.52. It also gave a relative viability (NCI-H2228; first compound 158.11 µM) of 0.203, a relative viability (NCI-H2228; first compound 500 µM) of 0.0468 and a relative viability (NCI-H661; first compound 15.81 µM) of 1.03. It also gave a relative viability (NCI-H661; first compound 50 µM) of 0.997, a relative viability (NCI-H661; first compound 158.11 µM) of 1.15 and a relative viability (NCI-H661; first compound 500 µM) of 0.817. It also gave a relative viability (NCI-H1666; first compound 5 µM) of 0.863, a relative viability (NCI-H1666; first compound 15.81 µM) of 0.995 and a relative viability (NCI-H1666; first compound 50 µM) of 1.03. For the same compound, the relative viability (NCI-H1666; first compound 158.11 µM) was 0.236, the relative viability (NCI-H1666; first compound 500 µM) was 0.131 and the relative viability (CAL-12T; first compound 5 µM) was 0.596. The relative viability (CAL-12T; first compound 15.81 µM) was 0.504, the relative viability (CAL-12T; first compound 50 µM) was 0.471 and the relative viability (CAL-12T; first compound 158.11 µM) was 0.0667. For the same compound, the relative viability (CAL-12T; first compound 500 µM) was 0.0085, the relative viability (NCI-H520; first compound 5 µM) was 0.721 and the relative viability (NCI-H520; first compound 15.81 µM) was 0.716. The relative viability (NCI-H520; first compound 50 µM) was 0.626, the relative viability (NCI-H520; first compound 158.11 µM) was 0.233 and the relative viability (NCI-H520; first compound 500 µM) was 0.106. The relative viability (NCI-H1734; first compound 5 µM) was 0.695, the relative viability (NCI-H1734; first compound 15.81 µM) was 0.685 and the relative viability (NCI-H1734; first compound 50 µM) was 0.62. It also gave a relative viability (NCI-H1734; first compound 158.11 µM) of 0.279, a relative viability (NCI-H1734; first compound 500 µM) of 0.113 and a relative viability (SK-LU-1; first compound 5 µM) of 1.03. The relative viability (SK-LU-1; first compound 15.81 µM) was 0.902, the relative viability (SK-LU-1; first compound 50 µM) was 0.644 and the relative viability (SK-LU-1; first compound 158.11 µM) was 0.167. The relative viability (SK-LU-1; first compound 500 µM) was 0.104, the relative viability (COR-L 105; first compound 5 µM) was 0.727 and the relative viability (COR-L 105; first compound 15.81 µM) was 0.772. For the same compound, the relative viability (COR-L 105; first compound 50 µM) was 0.753, the relative viability (COR-L 105; first compound 158.11 µM) was 0.242 and the relative viability (COR-L 105; first compound 500 µM) was 0.169. It also gave a relative viability (NCI-H3122; first compound 5 µM) of 0.234, a relative viability (NCI-H3122; first compound 15.81 µM) of 0.261 and a relative viability (NCI-H3122; first compound 50 µM) of 0.281. The relative viability (NCI-H3122; first compound 158.11 µM) was 0.247, the relative viability (NCI-H3122; first compound 500 µM) was 0.0651 and the relative viability (PC-14; first compound 5 µM) was 0.871. For the same compound, the relative viability (PC-14; first compound 15.81 µM) was 0.939, the relative viability (PC-14; first compound 50 µM) was 0.799 and the relative viability (PC-14; first compound 158.11 µM) was 0.848. For the same compound, the relative viability (PC-14; first compound 500 µM) was 0.33.
